Laboratory results: paper PMC10989020, “Preclinical characterization of a non-peptidomimetic HIV protease inhibitor with improved metabolic stability” (Antimicrobial Agents and Chemotherapy, 2024)
Read-outs that look alike come from different tables or passages of the source.

Key:
[1] = Cytotoxicity in CD4+ T-lymphocytes; format: cell-based; settings: human, uninfected (mock infected) primary CD4+ T lymphocytes
Procedure: (§1) Compound cytotoxicity assessment in MT-4 cells, primary CD4+ T lymphocytes, and MDMs was carried out using a protocol identical to the antiviral assay except uninfected cells were used and tested with higher concentration ranges of test compounds. Assessment of cytotoxicity in additional human cell lines (Gal-PC3, Gal-HepG2, HEp-2, Huh-7, MRC-5, HepG2-NTCP, Huh7-Lunet HCV 1b and 2a replicons, NHBE, A549-hACE2) and primary human PBMCs (resting and stimulated with PHA/IL-2) and hepatocytes have been described previously ([19]). For all cytotoxicity assays, the CC50 value for puromycin was determined as a positive internal control and to assess assay sensitivity in each cell type. The effect of tested compounds on cell viability was measured using a CellTiter-Glo readout, performed according to the manufacturer’s recommendations.

HCV-2a = experiment: microbe, parasite or virus in culture; settings: Hepatitis C virus, Huh-7
[2] = Predicted clearance from cynomolgus monkey liver microsome fractions; format: in vitro ADME
[3] = Cytotoxicity in A549-hACE2; format: cell-based; settings: human, A549-hACE2 cells
Procedure: as §1

Cytotoxicity in Huh-7 = format: cell-based; settings: human, Huh-7 cells
Procedure: as §1

[4] = In vivo pharmacokinetics in monkey; settings: cynomolgus monkey
Procedure: Preclinical pharmacokinetic studies were performed in male Sprague–Dawley rats, beagle dogs, and cynomolgus monkeys (three animals per dosing group in each species) following federal and Institutional Animal Care and Use Committee (IACUC) guidelines as described previously ([32]). […] The oral fraction absorbed (F%) was calculated using the formula:
%F=( PO Dose AUC0−inf) x (IV Dose)/(IV Dose AUC0−inf) x (PO Dose)×100%

two HIV-2 isolates = experiment: Antiviral assay in PBMCs with HIV-2 clinical isolates (RT endpoint); format: cell-based; settings: Human immunodeficiency virus 2, PBMC, 168 h, 7-day, RT activity
Procedure: Antiviral assays using fresh human PBMCs independently infected with a panel of clinical HIV-1 and HIV-2 isolates were performed by Southern Research as a contracted research study and assessed 7 days post-infection using reverse transcriptase (RT) endpoint assay. Antiviral assays using HIV-1 reporter viruses containing patient-derived sequences encoding all of PR and a portion of RT (amino acids 1–313) and conferring resistance to FDA-approved HIV PIs were performed by Monogram Biosciences Inc. (South San Francisco, CA) using their previously described Phenosense assay ([25]).

Cytotoxicity in HEp-2 = format: cell-based; settings: human, HEp-2 cells
Procedure: as §1

[5] = target: non-HIV aspartic proteases (BACE, cathepsin D, cathepsin E, pepsin, renin, and napsin); format: biochemical; settings: IC50 considered equal to Ki(app)
Procedure: Except for the substrate used in the renin assay, all fluorogenic substrates and recombinant enzymes were purchased from R&D Systems and the assays were performed according to the manufacturer’s recommended procedure with minor changes. For the BACE1 assay, recombinant human BACE1 (50 nM) and test compound at various concentrations were added to a reaction buffer containing 20 mM sodium acetate at pH 4.8 with 0.06% Triton X-100 and 1% DMSO. After a 15-minute pre-incubation, the enzymatic reaction was initiated by the addition of fluorogenic substrate to a final concentration of 1 µM and a total volume of 100 µL. For the Cat D assay, after a 15-minute pre-incubation, the enzymatic reaction was initiated by the addition of the fluorogenic substrate to a final concentration of 4 µM and a total volume of 100 µL. […] Activated Cat E (0.5 nM) and test compound at various concentrations were added to the assay buffer containing 100 mM sodium acetate at pH 3.5 with 200 mM sodium chloride and 1% DMSO. After a 15-minute pre-incubation, the enzymatic reaction was initiated by the addition of the fluorogenic substrate to a final concentration of 20 µM and a total volume of 100 µL. […]
Enzymatic assay data were analyzed in GraphPad Prism (version 9.3.0) by curve fitting with a four-parameter logistic equation to determine inhibitor half-maximal inhibitory concentration (IC50) values.

[6] = Cytotoxicity in primary human hepatocytes; format: cell-based
Procedure: as §1

[7] = Cytotoxicity in unstimulated PBMCs; format: cell-based; settings: human, unstimulated (resting) PBMCs
Procedure: as §1

[8] = human
Cytotoxicity in MRC-5 = format: cell-based; settings: human, MRC-5 cells
Procedure: as §1

HIV-1 IIIb = experiment: 5-day cytoprotection antiviral assay in MT-4 cells; format: cell-based
[9] = system: HBV, HCV, RSV, SARS-CoV-2; experiment: Antiviral activity against panel of non-HIV viruses (summary); settings: read-out: EC50 range across non-HIV viruses
Procedure: Antiviral assays using appropriate cell lines infected with non-HIV viruses were also performed. […] The hepatitis B virus (HBV) surface antigen (HBsAg) antiviral assay was performed as previously described ([28]) using ND-654 as a positive control. The respiratory syncytial virus (RSV) A2 HEp-2 antiviral assay was performed as previously described ([29]) using YM-53403 as a positive control. The severe acute respiratory syndrome coronavirus 2 (SARS-CoV-2) antiviral assay was performed as described previously ([30]) using remdesivir as a positive control.

[10] = Cytotoxicity in monocyte-derived macrophages; format: cell-based; settings: human, uninfected (mock infected) monocyte-derived macrophages
Procedure: as §1

[11] = system: HIV-1LAI wild type and site-directed PR mutants; experiment: microbe, parasite or virus in culture; format: cell-based
HIV-1 BaL = experiment: p24 production antiviral assay in CD4+ T-lymphocytes; format: cell-based; settings: Human immunodeficiency virus 1, T-lymphocyte, HIV-1BaL infected
Source text: Antiviral assays performed in HIV-1BaL infected CD4 +T-lymphocytes and monocyte-derived macrophages (MDMs) have been described previously ([18]). Cell-free supernatants derived from the CD4 +T cell and macrophage cultures were harvested 7- and 12-days post-infection, respectively, and the amount of HIV present was quantified by p24 antigen enzyme-linked immunosorbent assay (ELISA, Perkin Elmer, Waltham, MA) performed according to the manufacturer’s protocol.

SARS-CoV-2 = experiment: SARS-CoV2-Nluc reporter antiviral assay; settings: Severe acute respiratory syndrome coronavirus 2
Procedure: The hepatitis B virus (HBV) surface antigen (HBsAg) antiviral assay was performed as previously described ([28]) using ND-654 as a positive control. The respiratory syncytial virus (RSV) A2 HEp-2 antiviral assay was performed as previously described ([29]) using YM-53403 as a positive control. The severe acute respiratory syndrome coronavirus 2 (SARS-CoV-2) antiviral assay was performed as described previously ([30]) using remdesivir as a positive control.

[12] = Cytotoxicity across human cell types (summary ranges); format: cell-based; settings: read-out: mean CC50 range
Procedure: as §1

in vitro = format: cell-based; settings: human
Procedure: as §1

[13] = Predicted clearance from rat liver microsome fractions; format: in vitro ADME
HIV-1IIIb = experiment: Antiviral activity in MT-2/HIV-1IIIb cultures; format: cell-based; settings: Human immunodeficiency virus 1
[14] = Cytotoxicity in Gal-HepG2; format: cell-based; settings: human, Gal-HepG2 cells
Procedure: as §1

[15] = Cytotoxicity in HepG2-NTCP; format: cell-based; settings: human, HepG2-NTCP cells
Procedure: as §1

CC(C)(CC1(c2ccc(-c3cnn(C4CC4)n3)cc2)NC(=N)N(C(COC(=O)NC2(C(F)F)CC2)c2ccc(Cl)c(-c3ncnn3C(F)F)c2)C1=O)C(F)(F)F (stereo not shown) [GS-9770]
CC50 [1]: 9 ± 0.4 µM
EC50 (HCV-2a): 10.4 ± 0.3 µM
in vitro predicted blood CL [2]: 2.5 mL/min/kg
CC50 [3]: 7.8 ± 2.1 µM
CC50 (Cytotoxicity in Huh-7): 17 ± 3 µM
tolerability at the doses tested ([4]; 1 mg/kg IV, 4–5 mg/kg PO): well tolerated
clearance ([4]; plasma, 1 mg/kg IV): 5.67 mL/min/kg
bioavailability ([4]; plasma, 1 mg/kg IV and 4 mg/kg PO, read-out: F% (oral bioavailability)): 100 ± 34%
half-life ([4]; plasma, 1 mg/kg IV and 4 mg/kg PO, read-out: Terminal t1/2 (converted)): 7.4 ± 0.2 h
Vd ([4]; plasma, 1 mg/kg IV, read-out: Vss): 2.6 ± 0.8 L/kg
EC50 (two HIV-2 isolates): 0.026 µM
CC50 (Cytotoxicity in HEp-2): 17 ± 2 µM
Ki ([5]; read-out: Ki(app), lower end of range over six non-HIV proteases): 0.106 µM
Ki ([5]; read-out: Ki(app), upper end of range over six non-HIV proteases): > 100 µM
CC50 [6]: 34 ± 16 µM
CC50 [7]: 9.1 ± 5.5 µM
predicted plasma half-life in humans [8]: ~ 18.5 hours
CC50 (Cytotoxicity in MRC-5): 20 ± 6 µM
EC50 (HIV-1 IIIb; Human immunodeficiency virus 1, IIIB, T-cell, 120 h): 0.011 ± 0.002 µM
95% effective concentration (EC95) (HIV-1 IIIb; calculated from MT-4/HIV-1IIIb EC50 and Hill coefficient): 0.0216 µM
EC50 [9]: 2.5 to 34 µM
CC50 [10]: 16 ± 3 µM
EC50 ([11]; Human immunodeficiency virus 1, PR L24I M46L A77I V82A): 0.0059 ± 0.0032 µM
EC50 ([11]; Human immunodeficiency virus 1, PR L24I M46L I64V A77I V82A): 0.0224 ± 0.0073 µM
EC50 ([11]; Human immunodeficiency virus 1, PR M46L A77I V82A): 0.0083 ± 0.0018 µM
EC50 ([11]; Human immunodeficiency virus 1, PR V82A): 0.0082 ± 0.0032 µM
EC50 ([11]; Human immunodeficiency virus 1, Wild type (WT) HIV-1LAI): 0.0031 ± 0.0016 µM
EC50 (HIV-1 BaL): 0.0085 ± 0.0025 µM
EC50 (SARS-CoV-2): 5.3 ± 1.9 µM
CC50 ([12]; Gal-HepG2 and MRC-5 cells, five human cell lines (Gal-PC3, HEp-2, Huh7, Gal-HepG2, MRC-5)): 13 to 20 µM
CC50 ([12]; human, human cell lines and primary cells (15 cell types), across 15 different cell types): 4.7 to 34 µM
CC50 ([12]; primary human hepatocytes and PBMCs (stimulated and unstimulated)): 9.1 to 34 µM
CC50 (in vitro): 15.1 ± 2.1 µM
in vitro predicted blood CL [13]: 1.2 mL/min/kg
EC50 (HIV-1IIIb): 0.004 µM
CC50 [14]: 13 ± 6 µM
CC50 [15]: 8.4 ± 2 µM
